How the values were obtained:
LoVo (colon cancer) = test: Antiproliferative SRB assay, 72 h exposure; type: cell-based, human; conditions: LoVo; for IC50: Homo sapiens, SRB, 72 h, mean ± SD of 3–5 experiments, n.a. = no activity in concentration of 5, 25, 125, 625 μM
Experimental: (§1) The biological studies were performed in vitro using human cancer cell lines: MV4-11 (human biphenotypic B myelomonocytic leukaemia), A-549 (non-small cell lung cancer), MCF-7 (breast cancer), LoVo (colon cancer), LoVo/DX (colon cancer drug resistant), HepG2 (liver cancer) and BALB/3T3 (normal mice fibroblasts). These lines were obtained from American Type Culture Collection (Rockville, Maryland, U.S.A.). The cell line is being maintained in the Institute of Immunology and Experimental Therapy, Wroclaw, Poland. All cell lines were grown at 37°C with 5% CO2 humidified atmosphere and were cultured in cultured medium according to the method described before.
(§2) Prior to usage, the compounds were dissolved in DMSO or in mixture of 99.8% ethanol and DMSO (1:1) to the concentration of 25 or 50 mM, and subsequently diluted in culture medium to reach the required concentrations (ranging from 5 to 625 μM).
(§3) Twenty-four hours prior to the addition of tested compounds, the cells were plated in 96-well plates (Sarstedt, Germany) at a density of 1 × 10^4 cells per well in 100 μL of culture medium. The assay was performed after 72 h of exposure to varying concentrations of the tested agents. The in vitro cytotoxic effect of tested agents was examined using the MTT (for MV4-11 cells) or SRB assay which were described previously. Each compound in each concentration was tested in triplicate in a single experiment, which was repeated 3–5 times.
(§4) The results of antiproliferative activity were given as IC50 values. Using this parameter we calculated also the resistance indexes (RI) dividing the IC50 values of selected compounds estimated for drug resistant cell LOVO/DX line by respective values designated for drug sensitive LoVo line. According to Harker et al. three categories of the cells could be distinguished: (a) the cells are drug-sensitive—if the ratio approaches 0–2; (b) the cells are moderately drug-resistant—if the ratio ranges from 2 to 10; (c) the cells are markedly drug-resistant—if the ratio is higher than 10.

[1] = tested on: LoVo/DX (colon cancer drug resistant); test: Antiproliferative SRB assay, 72 h exposure; type: cell-based, human; conditions: Homo sapiens, LoVo/DX, mean ± SD of 3–5 experiments, n.a. = no activity in concentration of 5, 25, 125, 625 μM
Experimental: as §1, §2, §3, §4

[2] = tested on: A-549 (non-small cell lung cancer); test: Antiproliferative SRB assay, 72 h exposure; type: cell-based, human; conditions: Homo sapiens, A549, mean ± SD of 3–5 experiments, n.a. = no activity in concentration of 5, 25, 125, 625 μM
Experimental: as §1, §2, §3, §4

MCF-7 (breast cancer) = test: Antiproliferative SRB assay, 72 h exposure; type: cell-based, human; conditions: Homo sapiens, MCF7, mean ± SD of 3–5 experiments, n.a. = no activity in concentration of 5, 25, 125, 625 μM
Experimental: as §1, §2, §3, §4

HepG2 (liver cancer) = test: Antiproliferative SRB assay, 72 h exposure; type: cell-based, human; conditions: Homo sapiens, HepG2, mean ± SD of 3–5 experiments, n.a. = no activity in concentration of 5, 25, 125, 625 μM
Experimental: as §1, §2, §3, §4

[3] = tested on: BALB/3T3 (normal mice fibroblasts); test: Antiproliferative SRB assay, 72 h exposure; type: cell-based; conditions: Mus musculus, BALB/3T3, mean ± SD of 3–5 experiments, n.a. = no activity in concentration of 5, 25, 125, 625 μM
Experimental: as §1, §2, §3, §4

[4] = tested on: MV4-11 (human biphenotypic B myelomonocytic leukaemia); test: Antiproliferative MTT assay, 72 h exposure; type: cell-based; conditions: Homo sapiens, MV4-11, mean ± SD of 3–5 independent experiments
Experimental: as §1, §2, §3, §4

[5] = tested on: drug resistant LOVO/DX line vs drug sensitive LoVo line; test: Resistance index (RI): IC50 LOVO/DX divided by IC50 LoVo; type: cell-based, human; conditions: for Resistance index (RI): RI = IC50 resistant line / IC50 non-resistant line, 0<RI<2 able to overcome drug resistance, 2<RI<10 moderate ability, RI>10 no influence
Text: as §4

[6] = tested on: lung (A549), colon (LoVo) and liver (HepG2) cancer cell lines; test: Antiproliferative activity, range over several cancer cell lines as stated in text; type: cell-based; conditions: Homo sapiens, read-out: IC50 against lung (A549), colon (LoVo) and liver (HepG2) cancer cell lines
Experimental: as §1, §2
Twenty-four hours prior to the addition of tested compounds, the cells were plated in 96-well plates (Sarstedt, Germany) at a density of 1 × 10^4 cells per well in 100 μL of culture medium. […]
The results of antiproliferative activity were given as IC50 values. Using this parameter we calculated also the resistance indexes (RI) dividing the IC50 values of selected compounds estimated for drug resistant cell LOVO/DX line by respective values designated for drug sensitive LoVo line. […]

| SMILES | IC50 (LoVo (colon cancer)) | activity against colon cancer cell line, fold lower than cisplatin (LoVo (colon cancer)) | IC50 [1] | IC50 [2] | IC50 (MCF-7 (breast cancer)) | IC50 (HepG2 (liver cancer)) | IC50 [3] | IC50 [4] | able to overcome the barrier of P-gp-dependent resistance ([5]; judged from RI) | IC50 [6] | Resistance index (RI) [5] |
| --- | --- | --- | --- | --- | --- | --- | --- | --- | --- | --- | --- |
| C=CC(C)(CC/C=C(\C)CCC=C(C)C)CC(=O)OC[C@H](COP(=O)([O-])OCC[N+](C)(C)C)OC(=O)CC(C)(C=C)CC/C=C(\C)CCC=C(C)C (stereo partly shown) [Compound 6b] | 13.6 ± 0.7 µM | 5 fold | 57.6 ± 0.6 µM | 30.4 ± 1.5 µM | 45 ± 1.4 µM | 53.6 ± 5.1 µM | 57.8 ± 1.4 µM | 27.8 ± 7.52 µM | exception | 13.6 to 57.8 µM | – |
| C=CC(C)(CC/C=C(\C)CCC=C(C)C)CC(=O)O[C@H](COC(=O)CCCCCCCCCCCCCCC)COP(=O)([O-])OCC[N+](C)(C)C (stereo partly drawn) [Compound 7b, (2'R)-1’-palmitoyl-2’-[(3R,6E)-3,7,11-trimethyl-3-vinyldodeca-6,10-dienyl]-sn-glycero-3’-phosphocholine + (2'R)-1’-palmitoyl-2’-[(3S,6E)-3,7,11-trimethyl-3-vinyldodeca-6,10-dienyl]-sn-glycero-3’-phosphocholine] | 251 ± 22.7 µM | – | 486 ± 17.4 µM | 111 ± 12.9 µM | 98.7 ± 15.6 µM | 272 ± 24.7 µM | 518 ± 69.8 µM | 50.3 ± 5.37 µM | – | – | 1.16 |
| CCCC=C1C(C)(C)CCCC1(C)CC(=O)O (stereo not shown) [3 (DAA), 2-(2-butylidene-1,3,3-trimethylcyclohexyl)-acetic acid] | 173 ± 38.7 µM | – | 109 ± 16 µM | 150 ± 16.8 µM | 231 ± 43.2 µM | 274 ± 12 µM | 297 ± 14.4 µM | 132 ± 52.7 µM | – | – | 0.63 |
| C=CC(C)(CC/C=C(\C)CCC=C(C)C)CC(=O)O (stereo not shown) [2 (FARA), (E)-3,7,11-trimethyl-3-vinyldodeca-6,10-dienoic acid] | 99.2 ± 26 µM | – | 87 ± 14.4 µM | 91 ± 11.5 µM | 162 ± 5.9 µM | 267 ± 15.5 µM | 230 ± 40.3 µM | 153 ± 20.1 µM | – | – | 0.88 |
